Source: article PMC11018627, “KdpD is a tandem serine histidine kinase that controls K^+ pump KdpFABC transcriptionally and post-translationally” (Nature Communications, 2024)

Tests used:
KdpFABC = target: T1, KdpFABC (Escherichia coli, UniProt P03960); details: 2 mM ATP, 1 mM KCl, 37 °C; non-phosphorylated complex purified from E. coli TK2281
T1 construct: gene kdpB

KdpDNTD = target: T2, KdpDNTD (Escherichia coli, UniProt P21865); experiment: in vitro phosphorylation of KdpB, phosphoprotein gel stain; assay type: biochemical; details: phosphate donor of serine kinase; 5 mM ATP, 400 mM KCl, room temperature, 30 min, KdpFABC (KdpB D307N) as protein substrate; no ATPase activity alone
T2 construct: gene kdpD

EcKdpD = target: T3, EcKdpD (Escherichia coli, UniProt P21865); experiment: as above; assay type: biochemical; details: phosphate donor of serine kinase; 5 mM ATP, 400 mM KCl, room temperature, 30 min, KdpFABC (KdpB D307N) as protein substrate
T3 construct: gene kdpD; full-length, from pBXC3H (His-tag), produced in E. coli TK2281, purified in DDM or SMALPs
T3 sequence (P21865 1-894): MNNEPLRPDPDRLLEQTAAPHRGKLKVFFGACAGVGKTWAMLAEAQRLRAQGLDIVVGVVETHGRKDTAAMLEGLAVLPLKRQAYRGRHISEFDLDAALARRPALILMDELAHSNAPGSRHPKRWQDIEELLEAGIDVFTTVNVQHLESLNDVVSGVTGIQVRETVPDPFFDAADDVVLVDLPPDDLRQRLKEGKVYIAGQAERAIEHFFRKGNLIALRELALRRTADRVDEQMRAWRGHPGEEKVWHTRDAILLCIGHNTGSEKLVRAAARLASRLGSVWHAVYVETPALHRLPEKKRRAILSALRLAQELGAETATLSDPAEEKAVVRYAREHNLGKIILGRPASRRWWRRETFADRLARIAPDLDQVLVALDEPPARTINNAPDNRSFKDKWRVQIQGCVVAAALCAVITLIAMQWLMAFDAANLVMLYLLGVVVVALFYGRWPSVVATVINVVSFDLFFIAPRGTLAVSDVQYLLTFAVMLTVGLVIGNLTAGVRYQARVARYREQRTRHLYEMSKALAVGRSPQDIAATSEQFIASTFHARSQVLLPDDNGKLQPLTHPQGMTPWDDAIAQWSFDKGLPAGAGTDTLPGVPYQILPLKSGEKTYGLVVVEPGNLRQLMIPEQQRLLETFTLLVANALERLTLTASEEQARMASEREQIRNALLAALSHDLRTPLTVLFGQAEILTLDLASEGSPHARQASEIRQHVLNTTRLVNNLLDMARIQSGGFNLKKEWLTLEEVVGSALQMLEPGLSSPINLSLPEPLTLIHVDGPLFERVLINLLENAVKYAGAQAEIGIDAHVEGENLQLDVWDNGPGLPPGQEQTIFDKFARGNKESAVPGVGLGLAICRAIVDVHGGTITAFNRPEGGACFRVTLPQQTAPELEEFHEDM

DgKdpD [1] = target: T4, DgKdpD (Deinococcus geothermalis, UniProt Q1J2K3); experiment: as above; assay type: biochemical; details: phosphate donor of serine kinase; 5 mM ATP, 1 mM c-di-AMP, room temperature, 30 min, E. coli KdpFABC (KdpB D307N) as protein substrate
T4 construct: gene Dgeo_2852; short KdpD/Usp domain version, full chain; expressed in E. coli TK2281 from pBXC3H; His-tag removed with 3C protease on column

DgKdpD [2] = target: T4, DgKdpD; experiment: in vitro phosphorylation of E. coli KdpB, phosphoprotein gel stain; assay type: biochemical; details: activator; 1 mM c-di-AMP, 5 mM ATP, E. coli KdpFABC (KdpB D307N) as protein substrate, room temperature, 30 min

T4 sequence (Q1J2K3 entry or part of it): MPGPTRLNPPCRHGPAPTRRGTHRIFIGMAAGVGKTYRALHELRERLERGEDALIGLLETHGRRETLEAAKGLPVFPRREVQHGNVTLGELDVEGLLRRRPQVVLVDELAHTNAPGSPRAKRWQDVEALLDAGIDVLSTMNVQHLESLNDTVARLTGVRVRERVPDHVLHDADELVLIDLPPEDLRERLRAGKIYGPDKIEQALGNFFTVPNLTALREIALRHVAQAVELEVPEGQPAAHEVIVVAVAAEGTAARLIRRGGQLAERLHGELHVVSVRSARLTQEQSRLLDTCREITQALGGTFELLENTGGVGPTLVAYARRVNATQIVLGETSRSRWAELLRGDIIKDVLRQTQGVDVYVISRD
T1 sequence (P03959 whole entry): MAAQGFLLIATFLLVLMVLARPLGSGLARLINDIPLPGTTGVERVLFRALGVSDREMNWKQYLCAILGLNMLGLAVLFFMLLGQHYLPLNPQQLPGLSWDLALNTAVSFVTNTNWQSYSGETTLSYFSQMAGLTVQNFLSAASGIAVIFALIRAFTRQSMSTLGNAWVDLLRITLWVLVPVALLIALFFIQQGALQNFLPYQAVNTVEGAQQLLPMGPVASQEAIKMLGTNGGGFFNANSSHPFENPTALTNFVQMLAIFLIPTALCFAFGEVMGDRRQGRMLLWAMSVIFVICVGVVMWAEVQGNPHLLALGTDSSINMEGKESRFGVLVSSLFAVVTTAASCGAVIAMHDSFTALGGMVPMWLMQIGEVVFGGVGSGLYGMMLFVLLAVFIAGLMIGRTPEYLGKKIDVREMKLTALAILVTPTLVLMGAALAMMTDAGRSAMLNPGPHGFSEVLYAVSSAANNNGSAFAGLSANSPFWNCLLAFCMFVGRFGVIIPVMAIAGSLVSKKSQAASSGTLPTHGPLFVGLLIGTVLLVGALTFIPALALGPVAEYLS
T1 sequence (P36937 whole entry, further chain): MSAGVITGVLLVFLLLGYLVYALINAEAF
T1 sequence (P03961 whole entry, further chain): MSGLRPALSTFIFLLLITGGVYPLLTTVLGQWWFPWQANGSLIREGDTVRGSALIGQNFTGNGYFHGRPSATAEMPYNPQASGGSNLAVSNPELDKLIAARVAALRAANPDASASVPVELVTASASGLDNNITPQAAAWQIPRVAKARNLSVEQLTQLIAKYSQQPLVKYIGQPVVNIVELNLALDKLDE
T1 sequence (P03960 whole entry): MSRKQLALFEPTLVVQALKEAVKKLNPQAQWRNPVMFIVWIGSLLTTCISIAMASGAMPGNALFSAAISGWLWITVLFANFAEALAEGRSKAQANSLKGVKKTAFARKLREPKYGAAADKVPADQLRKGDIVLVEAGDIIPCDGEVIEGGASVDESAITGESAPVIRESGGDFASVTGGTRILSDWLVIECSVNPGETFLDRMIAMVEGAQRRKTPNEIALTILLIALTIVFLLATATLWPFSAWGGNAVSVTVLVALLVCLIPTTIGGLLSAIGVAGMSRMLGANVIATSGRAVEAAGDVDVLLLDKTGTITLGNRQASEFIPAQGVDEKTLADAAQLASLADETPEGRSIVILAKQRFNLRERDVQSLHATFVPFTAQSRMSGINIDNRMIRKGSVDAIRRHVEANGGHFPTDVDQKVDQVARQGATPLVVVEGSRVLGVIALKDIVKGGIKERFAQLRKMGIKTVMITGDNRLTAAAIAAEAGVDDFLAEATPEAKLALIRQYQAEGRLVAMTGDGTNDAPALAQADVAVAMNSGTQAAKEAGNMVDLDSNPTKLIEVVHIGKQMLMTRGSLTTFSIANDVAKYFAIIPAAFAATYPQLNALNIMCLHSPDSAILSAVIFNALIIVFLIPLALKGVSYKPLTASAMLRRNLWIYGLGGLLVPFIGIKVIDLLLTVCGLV

Row | in vitro phosphorylation of KdpB, phosphoprotein gel stain (DgKdpD [1]) | SMILES | malachite green ATPase assay (KdpFABC) | in vitro phosphorylation of KdpB, phosphoprotein gel stain (KdpDNTD) | in vitro phosphorylation of KdpB, phosphoprotein gel stain (EcKdpD) | stimulation of ASK activity at 1 mM (DgKdpD [2])
1 | DgKdpD can phosphorylate E. coli KdpB | Nc1ncnc2c1ncn2[C@@H]1O[C@H](COP(=O)(O)OP(=O)(O)OP(=O)(O)O)[C@@H](O)[C@H]1O [ATP] | KdpFABC produced under these conditions showed a high ATPase activity | This truncated construct remained able to phosphorylate KdpB | Upon incubation with full-length KdpD, the phosphorylation was fully restored | 
2 |  | Nc1ncnc2c1ncn2[C@@H]1O[C@@H]2COP(=O)(O)O[C@H]3[C@@H](O)[C@H](n4cnc5c(N)ncnc54)O[C@@H]3COP(=O)(O)O[C@H]2[C@H]1O [c-di-AMP] |  |  |  | phosphorylation of E. coli KdpB by DgKdpD was stimulated in the presence of c-di-AMP
